Measurements from patent US10005736B1, “Pyridine and pyrimidine derivatives” (Hoffmann-La Roche Inc., priority 2015, dated 2018).

Assays:
human EAAT3 = target: T1, human EAAT3 (Homo sapiens, UniProt P43005); test: FLIPR Membrane Potential (FMP) assay, antagonist potency at human EAAT3; type: cell-based; conditions: HEK-293 cells stably expressing human EAAT3; L-glutamate as agonist at EC80; antagonists applied 15 min before; Kb by Cheng-Prusoff from IC50
T1 construct: expressed in transfected cells; host or cells: HEK-293
T1 sequence (P43005 1-524): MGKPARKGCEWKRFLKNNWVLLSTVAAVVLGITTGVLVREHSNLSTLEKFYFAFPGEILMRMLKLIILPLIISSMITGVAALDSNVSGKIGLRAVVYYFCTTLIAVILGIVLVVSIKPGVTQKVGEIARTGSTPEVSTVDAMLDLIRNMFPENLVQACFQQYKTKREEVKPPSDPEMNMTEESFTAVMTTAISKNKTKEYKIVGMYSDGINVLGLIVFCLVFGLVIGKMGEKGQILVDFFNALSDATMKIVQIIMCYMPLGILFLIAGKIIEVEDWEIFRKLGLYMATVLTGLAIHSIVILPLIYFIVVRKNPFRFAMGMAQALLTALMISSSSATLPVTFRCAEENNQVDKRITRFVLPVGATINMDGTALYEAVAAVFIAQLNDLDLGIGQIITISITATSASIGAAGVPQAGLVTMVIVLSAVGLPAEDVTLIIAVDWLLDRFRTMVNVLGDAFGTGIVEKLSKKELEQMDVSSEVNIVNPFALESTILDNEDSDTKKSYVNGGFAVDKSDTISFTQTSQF
Method: The FLIPR Membrane Potential (FMP) Assay
HEK-293 cells stably expressing human EAAT3 were seeded at 55 000 cells/well in growth medium (DMEM glutamate free (Invitrogen 11960-044), 1% Pen Strep (10 ml/1 GIBCO BRL N^o 15140-023), 10% FCS non dialysed heat inactivated, 5 mg/l puromycin) in poly-D-lysine treated 96-well black microtiter plates with clear-bottom. After 24 h, the growth medium was removed and […] of Krebs buffer (140 mM NaCl, 4.7 mM KCl, 2.5 mM CaCl2, 1.2 mM MgCl2, 11 mM HEPES, 10 mM D-glucose, pH=7.4) added. The cells were then loaded by adding 100 μl/well FMP assay dye (FLIPR Membrane Potential assay reagent, Molecular Devices). The 96-well plates were then incubated at 37° C. for 1 h. The depolarization of the cells will cause more dye to enter in the cells, where it will bind to intracellular proteins and lipids and cause an increase in the fluorescence signal. Antagonist potency at human EAAT3 was determined by using L-glutamate as agonist at a concentration which gives 80% of the maximum response. The antagonists were applied 15 min before the application of the agonist L-glutamate. The assays were performed at room temperature and measurements done by using a Fluorometric Imaging Plate Reader (FLIPR, Molecular Devices) and filter #2. Responses were measured as peak increase in fluorescence minus basal (i.e. fluorescence without addition of L-glutamate). Kb was determined using the Cheng-Prusoff equation Kb=IC50/[1+(A/EC50)], where IC50 is the concentration of the antagonist producing 50% inhibition, A is the concentration of the agonist against which the IC50 is being determined (at EC80) and EC50 is the concentration of the agonist producing 50% […].

SMILES	Kb (human EAAT3)	melting point
Cc1ccncc1-c1cc(C(=O)NC(C)(C)C2CC2)cc(-c2ccc(F)cc2)c1 [Example 23, N-(2-Cyclopropylpropan-2-yl)-3-(4-fluorophenyl)-5-(4-methylpyridin-3-yl)-benzamide]	78 nM	76 °C
Cc1ncccc1-c1cc(C(=O)NC(C)(C)C)cc(-c2ccc(F)cc2)c1 [Example 24, N-tert-Butyl-3-(4-fluorophenyl)-5-(2-methylpyridin-3-yl)-benzamide]	170 nM	78 °C
Cc1ccc(-c2cc(C(=O)NC(C)(C)C)cc(-c3cncnc3C(C)C)c2)cc1 [Example 25, N-tert-Butyl-3-(4-methylphenyl)-5-(4-propan-2-ylpyrimidin-5-yl)-benzamide]	250 nM	91 °C
CC(C)c1ncncc1-c1cc(C(=O)NC(C)(C)C)cc(-c2ccc(F)c(F)c2)c1 [Example 26, N-tert-Butyl-3-(3,4-difluorophenyl)-5-(4-propan-2-ylpyrimidin-5-yl)-benzamide]	100 nM	80 °C
CC(C)c1ncncc1-c1cc(C(=O)NC(C)(C)C)cc(-c2ccc(C3CC3)cc2)c1 [Example 27, N-tert-Butyl-3-(4-cyclopropylphenyl)-5-(4-propan-2-ylpyrimidin-5-yl)-benzamide]	180 nM	91.5 °C
CC(C)c1ncncc1-c1cc(C(=O)NC(C)(C)C)cc(-c2ccc(C(F)(F)F)cc2)c1 [Example 28, N-tert-Butyl-3-(4-propan-2-ylpyrimidin-5-yl)-5-[4-(trifluoromethyl)-phenyl]-benzamide]	310 nM	168 °C
Cc1cc(-c2cc(C(=O)NC(C)(C)C)cc(-c3cncnc3C(C)C)c2)ccc1F [Example 29, N-tert-Butyl-3-(4-fluoro-3-methylphenyl)-5-(4-propan-2-ylpyrimidin-5-yl)-benzamide]	720 nM	83 °C
Cc1ccc(-c2cc(C(=O)NC(C)(C)C)cc(-c3cncnc3C(C)C)c2)cc1F [Example 30, N-tert-Butyl-3-(3-fluoro-4-methylphenyl)-5-(4-propan-2-ylpyrimidin-5-yl)-benzamide]	770 nM	90 °C
CC(C)c1ncncc1-c1cc(C(=O)NC(C)(C)C)cc(-c2ccc(Cl)c(F)c2)c1 [Example 31, N-tert-Butyl-3-(4-chloro-3-fluorophenyl)-5-(4-propan-2-ylpyrimidin-5-yl)-benzamide]	320 nM	93 °C
CC(C)c1ncncc1-c1cc(C(=O)NC(C)(C)C)cc(-c2ccc(C#N)cc2)c1 [Example 32, N-tert-Butyl-3-(4-cyanophenyl)-5-(4-propan-2-ylpyrimidin-5-yl)-benzamide]	570 nM	98 °C
COc1ccc(-c2cc(C(=O)NC(C)(C)C)cc(-c3cncnc3C(C)C)c2)cc1 [Example 33, N-tert-Butyl-3-(4-methoxyphenyl)-5-(4-propan-2-ylpyrimidin-5-yl)-benzamide]	540 nM	84 °C
Cc1ccc(-c2cc(C(=O)NC(C)(C)C#N)cc(-c3cncnc3C(C)C)c2)cc1F [Example 34, N-(2-Cyanopropan-2-yl)-3-(3-fluoro-4-methylphenyl)-5-(4-propan-2-yl-pyrimidin-5-yl)-benzamide]	400 nM	102.5 °C
Cc1cc(-c2cc(C(=O)NC(C)(C)C#N)cc(-c3cncnc3C(C)C)c2)ccc1F [Example 35, N-(2-Cyanopropan-2-yl)-3-(4-fluoro-3-methylphenyl)-5-(4-propan-2-yl-pyrimidin-5-yl)-benzamide]	350 nM	101 °C
CC(C)c1ncncc1-c1cc(C(=O)NC(C)(C)C#N)cc(-c2ccc(F)cc2)c1 [Example 36, N-(2-Cyanopropan-2-yl)-3-(4-fluorophenyl)-5-(4-propan-2-yl-pyrimidin-5-yl)-benzamide]	270 nM	97 °C
CC(C)c1ncncc1-c1cc(C(=O)NC(C)(C)C#N)cc(-c2ccc(C(F)(F)F)cc2)c1 [Example 37, N-(2-Cyanopropan-2-yl)-3-(4-propan-2-yl-pyrimidin-5-yl)-5-[4-(trifluoromethyl)-phenyl]-benzamide]	210 nM	98 °C
CC(C)c1ncncc1-c1cc(C(=O)NC(C)(C)C#N)cc(-c2ccc(Cl)cc2)c1 [Example 38, 3-(4-Chlorophenyl)-N-(2-cyanopropan-2-yl)-5-(4-propan-2-yl-pyrimidin-5-yl)-benzamide]	160 nM	97 °C
CC(C)(C)NC(=O)c1cc(-c2ccc(Cl)cc2)cc(-c2cncnc2C2CC2)c1 [Example 39, N-tert-Butyl-3-(4-chlorophenyl)-5-(4-cyclopropyl-pyrimidin-5-yl)-benzamide]	270 nM	96 °C
CCc1ncncc1-c1cc(C(=O)NC(C)(C)C)cc(-c2ccc(Cl)cc2)c1 [Example 40, N-tert-Butyl-3-(4-chlorophenyl)-5-(4-ethyl-pyrimidin-5-yl)-benzamide]	140 nM	75 °C
